Data: patent publication US4471131A, “Novel silyl esters of N-phosphonomethylglycine” (Monsanto Company, priority 1983, dated 1984)

Tests used:
Assay in all cases: post-emergence herbicidal activity, greenhouse
Type in all cases: in vivo
[1] = test system: Quackgrass; details: Table II, formulated immediately prior to treatment
From the text: (§1) A good grade of top soil is placed in aluminum pans having holes in the bottom and compacted to a depth of 0.95 to 1.27 cm. from the top of the pan. A predetermined number of seeds of each of several dicotyledonous and moncotyledonous annual plant species and/or vegetative propagules for the perennial plant species were placed on the soil and pressed into the soil surface. The seeds and/or vegetative propagules are covered with soil and leveled. The pans are then placed on a sand bench in the greenhouse and watered from below as needed. After the plants reach the desired age (two to three weeks), each pan, except for the control pans, is removed individually to a spraying chamber and sprayed by means of an atomizer at the rates noted. In the spray solution is an amount of an emulsifying agent mixture to give a spray solution or suspension which contains about 0.4% by weight of the emulsifier. The spray solution or suspension contains a sufficient amount of the candidate chemical in order to give application rates corresponding to those set forth in the tables. The pans were returned to the greenhouse and watered as before and the injury to the plants as compared to the control is observed at approximately two and four weeks and the results recorded. In the tables, WAT means "weeks after treatment."
(§2) The post-emergent herbicidal activity index used in Tables II and III is as follows:
(§3) The plant species utilized in these tests are identified by letter in accordance with the following legend: […]

[2] = test system: Common Lambsquarters
From the text: as §1, §2, §3

[3] = test system: Large Crabgrass; details: Table III, 2 WAT
From the text: as §1, §2, §3

[4] = test system: Hemp Sesbania; details: Table III, 2 WAT
From the text: as §1, §2, §3

[5] = test system: Morningglory
From the text: as §1, §2, §3

[6] = test system: Pennsylvania Smartweed
From the text: as §1, §2, §3

[7] = test system: Wild Buckwheat; details: Table III, 2 WAT
From the text: as §1, §2, §3

[8] = test system: Downy Brome
From the text: as §1, §2, §3

[9] = test system: Panicum Spp; details: Table III, 2 WAT
From the text: as §1, §2, §3

[10] = test system: Sugar Beet; details: Table III, 2 WAT
From the text: as §1, §2, §3

[11] = test system: Barnyardgrass
From the text: as §1, §2, §3

[12] = test system: Johnsongrass; details: Table II, formulated immediately prior to treatment
From the text: as §1, §2, §3

[13] = test system: Canada Thistle; details: Table II, formulated immediately prior to treatment
From the text: as §1, §2, §3

[14] = test system: Velvetleaf
From the text: as §1, §2, §3

[15] = test system: Rice; details: Table III, 2 WAT
From the text: as §1, §2, §3

[16] = test system: Soybean; details: Table III, 2 WAT
From the text: as §1, §2, §3

[17] = test system: Yellow Nutsedge; details: Table II, formulated immediately prior to treatment
From the text: as §1, §2, §3

[18] = test system: Cocklebur
From the text: as §1, §2, §3

[19] = Table II, 2 WAT, 5.6 kg/h, formulated immediately prior to treatment
[20] = Table II, 2 WAT, 11.2 kg/h, formulated immediately prior to treatment
[21] = Table II, 4 WAT, 5.6 kg/h, formulated immediately prior to treatment
[22] = Table II, 4 WAT, 11.2 kg/h, formulated immediately prior to treatment

For `CC(C)OC(=O)CNCP(=O)(O)O[Si](c1ccccc1)(c1ccccc1)C(C)(C)C` [Ex. 2, Glycine, N((([(1,1-Dimethylethyl)Diphenylsilyl]oxy)-Hydroxyphosphinyl)-, methyl)-, 1-Methylethyl Ester], the “Plant Response Index (H)” value ([1]; 2 WAT, 5.6 kg/h) was 3 (75-99% inhibition), the “Plant Response Index (H)” value ([1]; 2 WAT, 11.2 kg/h) was 3 (75-99% inhibition) and the “Plant Response Index (H)” value ([1]; 4 WAT, 5.6 kg/h) was 3 (75-99% inhibition). For the same molecule, the “Plant Response Index (H)” value ([1]; 4 WAT, 11.2 kg/h) was 4 (100% inhibition), the “Plant Response Index (E)” value [2, 19] was 3 (75-99% inhibition) and the “Plant Response Index (E)” value [2, 20] was 3 (75-99% inhibition). For the same molecule, the “Plant Response Index (E)” value [2, 21] was 2 (50-74% inhibition), the “Plant Response Index (E)” value [2, 22] was 3 (75-99% inhibition) and the “Plant Response Index (E)” value ([2]; Table III, 2 WAT, 1.1 kg/h) was 3 (75-99% inhibition). The “Plant Response Index (E)” value ([2]; Table III, 2 WAT, 5.6 kg/h) was 3 (75-99% inhibition), the “Plant Response Index (T)” value ([3]; 1.1 kg/h) was 2 (50-74% inhibition) and the “Plant Response Index (T)” value ([3]; 5.6 kg/h) was 3 (75-99% inhibition). For the same molecule, the “Plant Response Index (R)” value ([4]; 1.1 kg/h) was 0 (0-24% inhibition), the “Plant Response Index (R)” value ([4]; 5.6 kg/h) was 3 (75-99% inhibition) and the “Plant Response Index (D)” value [5, 19] was 2 (50-74% inhibition). The “Plant Response Index (D)” value [5, 20] was 3 (75-99% inhibition), the “Plant Response Index (D)” value [5, 21] was 2 (50-74% inhibition) and the “Plant Response Index (D)” value [5, 22] was 3 (75-99% inhibition). The “Plant Response Index (D)” value ([5]; Table III, 2 WAT, 1.1 kg/h) was 0 (0-24% inhibition), the “Plant Response Index (D)” value ([5]; Table III, 2 WAT, 5.6 kg/h) was 3 (75-99% inhibition) and the “Plant Response Index (F)” value [6, 19] was 3 (75-99% inhibition). For the same molecule, the “Plant Response Index (F)” value [6, 20] was 4 (100% inhibition), the “Plant Response Index (F)” value [6, 21] was 4 (100% inhibition) and the “Plant Response Index (F)” value [6, 22] was 4 (100% inhibition). For the same molecule, the “Plant Response Index (F)” value ([6]; Table III, 2 WAT, 1.1 kg/h) was 3 (75-99% inhibition), the “Plant Response Index (F)” value ([6]; Table III, 2 WAT, 5.6 kg/h) was 3 (75-99% inhibition) and the “Plant Response Index (Q)” value ([7]; 1.1 kg/h) was 0 (0-24% inhibition). For the same molecule, the “Plant Response Index (Q)” value ([7]; 5.6 kg/h) was 3 (75-99% inhibition), the “Plant Response Index (J)” value [8, 19] was 2 (50-74% inhibition) and the “Plant Response Index (J)” value [8, 20] was 3 (75-99% inhibition). The “Plant Response Index (J)” value [8, 21] was 2 (50-74% inhibition), the “Plant Response Index (J)” value [8, 22] was 3 (75-99% inhibition) and the “Plant Response Index (J)” value ([8]; Table III, 2 WAT, 1.1 kg/h) was 0 (0-24% inhibition). For the same molecule, the “Plant Response Index (J)” value ([8]; Table III, 2 WAT, 5.6 kg/h) was 3 (75-99% inhibition), the “Plant Response Index (S)” value ([9]; 1.1 kg/h) was 0 (0-24% inhibition) and the “Plant Response Index (S)” value ([9]; 5.6 kg/h) was 3 (75-99% inhibition). The “Plant Response Index (M)” value ([10]; 1.1 kg/h) was 0 (0-24% inhibition), the “Plant Response Index (M)” value ([10]; 5.6 kg/h) was 2 (50-74% inhibition) and the “Plant Response Index (K)” value [11, 19] was 3 (75-99% inhibition). For the same molecule, the “Plant Response Index (K)” value [11, 20] was 3 (75-99% inhibition), the “Plant Response Index (K)” value [11, 21] was 3 (75-99% inhibition) and the “Plant Response Index (K)” value [11, 22] was 3 (75-99% inhibition). The “Plant Response Index (K)” value ([11]; Table III, 2 WAT, 1.1 kg/h) was 1 (25-49% inhibition), the “Plant Response Index (K)” value ([11]; Table III, 2 WAT, 5.6 kg/h) was 3 (75-99% inhibition) and the “Plant Response Index (I)” value ([12]; 2 WAT, 5.6 kg/h) was 3 (75-99% inhibition). The “Plant Response Index (I)” value ([12]; 2 WAT, 11.2 kg/h) was 3 (75-99% inhibition), the “Plant Response Index (I)” value ([12]; 4 WAT, 5.6 kg/h) was 3 (75-99% inhibition) and the “Plant Response Index (I)” value ([12]; 4 WAT, 11.2 kg/h) was 3 (75-99% inhibition). The “Plant Response Index (A)” value ([13]; 2 WAT, 5.6 kg/h) was 3 (75-99% inhibition), the “Plant Response Index (A)” value ([13]; 2 WAT, 11.2 kg/h) was 1 (25-49% inhibition) and the “Plant Response Index (A)” value ([13]; 4 WAT, 5.6 kg/h) was 3 (75-99% inhibition). The “Plant Response Index (A)” value ([13]; 4 WAT, 11.2 kg/h) was 1 (25-49% inhibition), the “Plant Response Index (C)” value [14, 19] was 2 (50-74% inhibition) and the “Plant Response Index (C)” value [14, 20] was 3 (75-99% inhibition). The “Plant Response Index (C)” value [14, 21] was 2 (50-74% inhibition), the “Plant Response Index (C)” value [14, 22] was 3 (75-99% inhibition) and the “Plant Response Index (C)” value ([14]; Table III, 2 WAT, 1.1 kg/h) was 0 (0-24% inhibition). The “Plant Response Index (C)” value ([14]; Table III, 2 WAT, 5.6 kg/h) was 3 (75-99% inhibition), the “Plant Response Index (O)” value ([15]; 1.1 kg/h) was 0 (0-24% inhibition) and the “Plant Response Index (O)” value ([15]; 5.6 kg/h) was 3 (75-99% inhibition). The “Plant Response Index (L)” value ([16]; 1.1 kg/h) was 0 (0-24% inhibition), the “Plant Response Index (L)” value ([16]; 5.6 kg/h) was 2 (50-74% inhibition) and the “Plant Response Index (G)” value ([17]; 2 WAT, 5.6 kg/h) was 2 (50-74% inhibition). For the same molecule, the “Plant Response Index (G)” value ([17]; 2 WAT, 11.2 kg/h) was 2 (50-74% inhibition), the “Plant Response Index (G)” value ([17]; 4 WAT, 5.6 kg/h) was 3 (75-99% inhibition) and the “Plant Response Index (G)” value ([17]; 4 WAT, 11.2 kg/h) was 2 (50-74% inhibition). The “Plant Response Index (B)” value [18, 19] was 2 (50-74% inhibition), the “Plant Response Index (B)” value [18, 20] was 3 (75-99% inhibition) and the “Plant Response Index (B)” value [18, 21] was 2 (50-74% inhibition). For the same molecule, the “Plant Response Index (B)” value [18, 22] was 3 (75-99% inhibition), the “Plant Response Index (B)” value ([18]; Table III, 2 WAT, 1.1 kg/h) was 0 (0-24% inhibition) and the “Plant Response Index (B)” value ([18]; Table III, 2 WAT, 5.6 kg/h) was 3 (75-99% inhibition).
